Laboratory results: PubChem BioAssay AID1996
Converted amounts (≈) assume the structure as drawn.

Details: buffer; pH 7.4; 200.0 µM

Compound | solubility kinetic [µg/mL]
Cc1ccc(OCc2ccc(C(=O)Nc3cc(C)on3)o2)c([N+](=O)[O-])c1 | 1.4 (≈ 3.92 µM)
CCOC(=O)c1cc(C)n(-c2ccc(Cl)cc2)c1C | 1.2 (≈ 4.32 µM)
CCc1ccc(/C([O-])=C(/C(=S)NCCN2CCOCC2)[n+]2ccccc2)cc1 | 55.4 (≈ 139 µM)
CSc1ccc(CN2CCCN(C)CC2)cc1 | 22.1 (≈ 88.3 µM)
Cc1cc2nc(/N=C(\N)NC(=O)C(C)C)nc(C)c2cc1C | 2.9 (≈ 9.69 µM)
CC(C)Oc1ccc(C(=O)NC2=NCCS2)cc1 | 23.1 (≈ 87.4 µM)
Cc1ccc2nc3c(nc2c1C)CCCC3 | 7.1 (≈ 33.4 µM)
COc1ccc(NC(=O)CN2C(=O)NC(C)(c3ccc4c(c3)OCO4)C2=O)cc1S(N)(=O)=O (stereo not drawn) | 66.9 (≈ 140 µM)
O=C(Nc1nccs1)c1ccc(CSc2ccccc2)o1 | 1.6 (≈ 5.06 µM)
O=C(Nc1ccc(-c2cnco2)cc1)c1ccc(F)cc1F | 0.8 (≈ 2.66 µM)
CNc1nc(N)c([N+](=O)[O-])c(NCC2CCCO2)n1 (stereo not drawn) | > 40.2
CCOc1ccccc1-n1c(C)cc(C=O)c1C | > 36.5
COC(=O)Cc1nc(NC(=O)c2cccs2)sc1C | > 44.5
COc1ccc(-c2csc3nc(-c4ccccc4F)oc(=O)c23)cc1 | < 0.8
Cc1c(C(=O)N(C)Cc2nc3ccccc3c(=O)[nH]2)oc2ccccc12 | 4.6 (≈ 13.2 µM)
Cc1cc(C)cc(CC2CC(=O)N(c3ccc([N+](=O)[O-])cc3)C2=O)c1 (stereo not drawn) | < 0.4
CC1CC1C(=O)OCC(=O)Nc1cc(S(=O)(=O)N2CCCCC2)ccc1Cl (stereo not drawn) | 31.1 (≈ 75 µM)
CCOC(=O)/C(C#N)=C/c1cccc(F)c1 | 28.6 (≈ 130 µM)
CCc1ccc(OCC(=O)NC(C)C)cc1 | 30.9 (≈ 140 µM)
Cc1nc(-c2ccccc2)sc1C(=O)NN | > 35
CC(=O)c1cccc(NC(=S)NCCc2ccc(Cl)cc2)c1 | 4.1 (≈ 12.3 µM)
CN1CCN(S(=O)(=O)Cc2ccccc2Cl)CC1 | > 43.3
O=C(COC(=O)c1cnccn1)Nc1cccc2ccccc12 | > 46.1
CCN(CC)CCNC(=O)c1cc(S(C)(=O)=O)ccc1OC.Cl | 52.5

Compound | solubility kinetic [µg/mL]
O=C(Nc1ccc(S(=O)(=O)NC2=NCCCCC2)cc1)c1cccs1 | > 56.6
Cc1cccc(NC(=O)Cn2c(=O)oc3ccccc32)n1 | > 42.5
COc1ccc(N2CCN(C(CNC(=O)C(=O)NCCCO)c3ccco3)CC2)cc1 (stereo not drawn) | > 64.6
Cn1cccc1C1CCCN1CC(=O)Nc1ccc(C(N)=O)cc1 (stereo not drawn) | > 49
CCOC(=O)c1ccc(Nc2ncnc3ccccc23)cc1.Cl | 1.7
CCOC(=O)c1csc(NC(=O)c2cc(=O)c3ccccc3o2)n1 | 11.5 (≈ 33.4 µM)
O=C(O)CCc1nc2ccccc2c(=O)[nH]1 | > 32.7
COc1ccc(/C=C/C(=O)OCC(=O)NC(C)CCc2ccccc2)cc1 (stereo not drawn) | 3.7 (≈ 10.1 µM)
Cc1ccc(NC(=O)CN2C(=O)c3ccccc3S2(=O)=O)cc1C | 5.9 (≈ 17.1 µM)
O=C(C(=O)N1CCCCCC1)c1c[nH]c2ccccc12 | > 40.5
COc1cccc(NS(=O)(=O)c2ccc3c(c2)CC(=O)N3)c1 | > 47.8
COc1cccc(C(=O)NOCc2ccccc2)c1OC | > 43.1
c1cncc(-c2nc(N3CCOCC3)c3c4c(sc3n2)CCC4)c1 | 1.1 (≈ 3.25 µM)
COc1ccc(CC(=O)OCC(=O)Nc2ccc(Cl)cc2C)cc1 | 9 (≈ 25.9 µM)
O=C(Nc1ccc(N2CCCC2)cc1)c1cc2ccccc2o1 | 0.4 (≈ 1.31 µM)
CN(C)S(=O)(=O)c1ccc(C(=O)OC2CCOC2=O)cc1 (stereo not drawn) | > 47
CC1(C)CC(NC(=O)c2ccc(-c3ccc([N+](=O)[O-])cc3)o2)CC(C)(C)N1 | 41.1 (≈ 111 µM)
COc1cc(CN2CC=C(c3ccc(F)cc3)CC2)cc(OC)c1 | 10.4 (≈ 31.8 µM)
Cc1cc(NC(=O)CSc2ncnc3sccc23)no1 | 19.3 (≈ 63 µM)
O=C(CCCC(=O)c1ccccc1)Nc1ccc(F)cc1 | 4.9 (≈ 17.2 µM)
Nc1nc(OCc2ccccc2)c2[nH]cnc2n1 | 35.9 (≈ 149 µM)
CN(C)CCCN=Cc1c(O)n(Cc2ccco2)c(=O)[nH]c1=O | 36.4 (≈ 114 µM)
O=C1OC(N2C(=O)CC[C@H]2C(=O)Nc2ccc3c(c2)OCO3)c2ccccc21 (stereo partly drawn) | > 57.1
CCc1nn(CC(=O)Nc2cc(C)ccc2C)c(=N)s1.Cl | > 49

Compound | solubility kinetic [µg/mL]
CC(C)C(=O)N1CCN(c2ccccc2NC(=S)NC(=O)/C=C/c2ccco2)CC1 | 1.6 (≈ 3.75 µM)
COc1nc(NC(=O)c2ccc(F)cc2)nc(OC)c1-c1ccccc1 | 6 (≈ 17 µM)
OCCCNc1nc(-c2ccccc2)c2cc(Cl)ccc2n1 | 21.5 (≈ 68.5 µM)
COc1ccccc1N1CCNC(C)C1=O.Cl (stereo not drawn) | 33.4
CCOc1cc(/C=C2\C(=O)ON=C2c2ccccc2)ccc1OC | 46.1 (≈ 143 µM)
CC(=O)c1cn(CCOc2ccccc2C)c2ccccc12 | < 0.6
O=C(/C=C/c1ccccc1)Oc1cccc(C(=S)N2CCOCC2)c1 | 4.6 (≈ 13 µM)
COCc1cc(C)nc(SCc2ccccc2)c1C#N | 3.4 (≈ 12 µM)
Cc1cccc(NC(=O)c2cc(Cl)nc3ccccc23)n1 | 19.9 (≈ 66.8 µM)
CNC(=O)CSc1nnc(-c2ccco2)n1-c1ccccc1 | > 47.2
Cc1snc(SCc2ccc(F)cc2)c1C#N | 3 (≈ 11.3 µM)
O=C1CC(c2ccccc2)CC2=C1C=Nc1ccccc1N2 (stereo not drawn) | 37 (≈ 128 µM)
Cc1c(OCC(=O)N(C)C)ccc2c(-c3ccccc3)cc(=O)oc12 | 13.6 (≈ 40.3 µM)
CC(C)CCN1CCN(Cc2cccn2-c2cccnc2)CC1CCO (stereo not drawn) | > 53.5
O=C(CN1CCCC1c1cccs1)Nc1cc(S(=O)(=O)N2CCCC2)ccc1Cl (stereo not drawn) | 1.6 (≈ 3.52 µM)
CC(=O)N1CCC2(CC1)NC(=O)N(c1ccccc1)N2 | > 41.1
Cn1c(SCC(=O)Nc2ccccc2)nc2ccccc2c1=O | 3.2 (≈ 9.83 µM)
Nc1ccc(CCN2CCN(c3cccc(C(F)(F)F)c3)CC2)cc1 | > 52.4
Cn1cc(Cl)cc(C(=O)Nc2ccccc2)c1=O | 2 (≈ 7.61 µM)
CCOC(=O)c1c(CC(C)C)csc1/N=C/C1=C(O)CCCC1=O | 2.3 (≈ 6.58 µM)
CC1=C(C(=O)Nc2ccccc2)C(c2cccs2)NC(=O)N1 (stereo not drawn) | 41.3 (≈ 132 µM)
CC1(C)CC(=O)C=C(NCCc2c[nH]c3ccccc23)C1 | > 42.4
CC(C)Oc1ccccc1C1(c2ccccc2)NC(=O)NC1=O (stereo not drawn) | > 46.6
O=C1/C(=C/c2ccc(O)cc2)SC(=S)N1CC1CCCO1 (stereo not drawn) | 1.3 (≈ 4.04 µM)

Compound | solubility kinetic [µg/mL]
Cc1ccccc1-c1nnc(SCCC(=O)N2CCOCC2)o1 | > 50
Cc1cc(=O)[nH]c(SCc2cn3ccccc3n2)n1 | > 40.8
COc1cc(OC)nc(Oc2cccc(C(F)(F)F)c2)n1 | < 0.3
Cc1ccc(SCC(=O)NC(=O)c2ccccc2Br)c(C)c1 | > 56.7
Cc1ccn2cc(CCNC(=O)C3CC=CCC3C(=O)O)nc2c1 (stereo not drawn) | 45.7 (≈ 140 µM)
O=C(Nc1sc2c(c1C(=O)NCCCO)CCCC2)c1ccccc1 | 1.6 (≈ 4.46 µM)
CC(C)(C)C1CCc2c(sc3nc(SCC(=O)O)nc(N)c23)C1 (stereo not drawn) | 39.4 (≈ 112 µM)
COc1ccc(C(=O)Cn2cnc3ccccc3c2=O)c(OC)c1 | 41.7 (≈ 129 µM)
COc1ccc(S(=O)(=O)NC(C)C(=O)NCc2ccncc2)cc1Cl (stereo not drawn) | > 57.6
Cc1nc(N)[nH]c(=O)c1CC(=O)OCCCl | 30.4 (≈ 124 µM)
O=S(=O)(CCc1ccncc1)Cc1ccc2c3c(cccc13)CC2 | 11.8 (≈ 35 µM)
CN(c1ccccc1)S(=O)(=O)c1ccc2c(c1)OCCO2 | 43.2 (≈ 141 µM)
Cc1cccc(C)c1NC(=O)NC1(C(=O)N2CCCCC2)CCCCC1 | 45.6 (≈ 128 µM)
Cc1ccc(NC(=O)CCc2c(C)[nH]c(=O)c(C#N)c2C)cc1 | 12.3 (≈ 39.8 µM)
CCCc1cc(NCCCN(C)C)n2c(nc3ccccc32)c1C#N | 40.5 (≈ 121 µM)
COc1ccc(CC(C)NCCc2ccc(OC)c(OC)c2)cc1 (stereo not drawn) | 48.7 (≈ 148 µM)
COc1cc(NC(=O)C2C3CCC(O3)C2C(=O)O)cc(OC)c1 (stereo not drawn) | > 48.2
O=C(COC(=O)c1ccc[nH]c1=O)NCCc1ccc(F)cc1 | 44.6 (≈ 140 µM)
CC(CCc1ccccc1)NC(=O)c1cccc(F)c1 (stereo not drawn) | 36.6 (≈ 135 µM)
CCOc1ccccc1C1CC(=O)Nc2cc(C)c(C)cc21 (stereo not drawn) | < 0.6
CCOC(=O)c1c(Cc2ccccc2)c[nH]c1C | 30.9 (≈ 127 µM)
O=C(COC(=O)CNC(=O)c1ccccc1Cl)NC1CC1 | 37.4 (≈ 120 µM)
COc1ccccc1N1CCN(C(=O)C2CC2)CC1 | > 39.1
Cc1ccccc1OCC(=O)NCCNC(=O)c1ccccn1 | > 47

Compound | solubility kinetic [µg/mL]
Cc1ccsc1/C=N/N1CCOCC1 | > 31.5
Cc1ccc(CCC(=O)Nc2ccc(Br)cc2)o1 | 4.2 (≈ 13.6 µM)
COC(=O)c1cn(C(=O)c2cccc(C)c2)c2ccccc12 | 3.9 (≈ 13.3 µM)
Cc1ccc(CNCCc2ccccc2F)s1 | 33.2 (≈ 133 µM)
Cc1nc(SCC(=O)NC(=O)NC2CCCCC2)nc(C)c1C | 47.8 (≈ 142 µM)
COc1ccc(N2CCCC2)c(NC(=O)COc2ccccc2Cl)c1 | 1 (≈ 2.77 µM)
O=S(=O)(Nc1cccc(F)c1)c1cccc2nsnc12 | > 46.4
CCN(CC)S(=O)(=O)c1cc(NC(=O)NCCCl)ccc1C | > 52.2
CCOc1ccccc1OC(=O)CN1C(=O)c2ccccc2C1=O | 16.2 (≈ 49.8 µM)
O=C1NC(=O)C(=Cc2ccc(-c3ccccc3[N+](=O)[O-])o2)C(=O)N1 | 44.2 (≈ 135 µM)
O=C(Nc1ccc(O)cc1)/C(=C/c1ccco1)NC(=O)c1ccccc1 | > 52.3
CC1(C)CC(=O)C(C(N)=NC(=O)c2ccc([N+](=O)[O-])cc2)=C(O)C1 | 0.7 (≈ 2.11 µM)
CCc1ccccc1NC(=O)Nc1ccsc1C(=O)OC | 16.2 (≈ 53.2 µM)
O=C(COC(=O)[C@H](Cc1ccccc1)NC(=O)c1ccco1)Nc1ccccc1 | > 58.9
CC(C)Oc1ccccc1C1NC(=O)CCC1[N+](=O)[O-] (stereo not drawn) | > 41.7
Cc1sc2ncnc(N[C@@H](Cc3ccccc3)C(=O)O)c2c1C | 46.8 (≈ 143 µM)
C=CCn1c(O)c(C=NCCCn2ccnc2)c(=O)[nH]c1=O | > 45.5
CCN(CC)S(=O)(=O)c1ccc(/C=C/C(=O)OCC(=O)NC(=O)C2COc3ccccc3O2)cc1 (stereo not drawn) | 21 (≈ 41.8 µM)
COc1ccccc1CNC(=O)C12CC3CC(CC(C3)C1)C2 | 2.3 (≈ 7.68 µM)
CCc1ccc(N2C(=O)C3C(C2=O)N2CCCN2C3c2ccccc2)cc1 (stereo not drawn) | > 54.2
N/C(=N\O)c1cn(Cc2ccccc2Cl)c2ccccc12 | 39.4 (≈ 131 µM)
CCN(CC(=O)NCc1ccc2c(c1)OCO2)S(=O)(=O)c1ccc(F)cc1 | 55.6 (≈ 141 µM)
